Measurements from paper PMC5787524, “Discovery of a FLT3 inhibitor LDD1937 as an anti-leukemic agent for acute myeloid leukemia” (Oncotarget, 2017).

Assays:
[1] = molecular target: T1, IRAK4 (Homo sapiens, UniProt Q9NWZ3); experiment: In vitro IRAK4 kinase assay (LANCE Ultra); assay type: biochemical
T1 sequence (Q9NWZ3 1-460): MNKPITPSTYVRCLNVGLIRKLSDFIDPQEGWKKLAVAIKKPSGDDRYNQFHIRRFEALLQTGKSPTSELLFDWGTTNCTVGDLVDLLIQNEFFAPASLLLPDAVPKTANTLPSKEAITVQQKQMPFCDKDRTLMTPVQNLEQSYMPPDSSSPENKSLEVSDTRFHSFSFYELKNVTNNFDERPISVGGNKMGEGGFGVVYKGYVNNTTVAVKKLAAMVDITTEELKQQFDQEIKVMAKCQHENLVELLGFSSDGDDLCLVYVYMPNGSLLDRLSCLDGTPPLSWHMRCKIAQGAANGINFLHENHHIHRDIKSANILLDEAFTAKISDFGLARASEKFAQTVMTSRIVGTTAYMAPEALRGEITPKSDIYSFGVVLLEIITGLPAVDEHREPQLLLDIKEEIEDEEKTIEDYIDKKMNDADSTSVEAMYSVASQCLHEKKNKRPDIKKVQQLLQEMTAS
Experimental: The in vitro kinase assay for IRAK4 was done with the LANCE Ultra Kinase Activity Assay (Perkin Elmer) containing the ULight-p70S6K (Thr389) peptide (phosphorylation motif […]). The assays consisted of the enzyme mixed with serially diluted compounds, 50 nM ULight-p70S6K (Thr389) peptide, and 500 μM ATP prediluted in kinase buffer (50 mM HEPES (pH 7.5), 10 mM MgCl2, 1 mM EGTA, 2 mM DTT, and 0.01% Tween20). Ten microliters of the total volume of the kinase reaction were added to the wells of a 96-well assay plate. The kinase reactions were incubated for 90 min. at 25°C and stopped by the addition of 10 mM EDTA. For the detection of the phospho-substrate, the Eu-anti-phospho-p70S6K (Thr389) antibody diluted in detection buffer was added to a final concentration of 2 nM, and the reactions were then incubated for 1 h at 25°C. The signal was measured on an EnVision multi-label reader.

[2] = tested on: PARP cleavage in MV-4-11 cells; experiment: PARP cleavage western blot; assay type: cell-based, human; settings: MV-4-11, 24 h
Experimental: (§1) Cells were lysed in SDS Lysis buffer (12 mM Tris-Cl, pH 6.8, 5% glycerol, and 0.4% SDS), and the protein concentrations were measured with the SMART BCA Protein Assay kit (iNtRON Biotechnology, Korea). The proteins were resolved with SDS-polyacrylamide gel electrophoresis followed by transfer to PVDF membranes (Millipore, Billerica, MA, USA) and incubated overnight with the appropriate antibodies. The antibodies used were as follows: phospho-STAT5 (p-STAT5; rabbit polyclonal IgG; #9351, 1:1,000), cyclin D1 (rabbit polyclonal IgG; #2922, 1:1,000), and PARP (rabbit polyclonal IgG; #9542, 1:1,000) from Cell Signaling Technology (Danver, MA, USA), STAT5 (rabbit polyclonal IgG; #sc-835, 1:1,000) from Santa Cruz (Santa Cruz, CA, USA), and β-actin (mouse monoclonal IgG; # A5441, 1:5000) from Sigma-Aldrich. Goat anti-rabbit IgG (#111-035-003; 1;5,000) and anti-mouse IgG (#115-035-033; 1:5,000) secondary antibodies were obtained from Jackson ImmunoResearch Laboratories, Inc. (West Grove, PA, USA).

[3] = tested on: cyclin D1 level in MV-4-11 cells; experiment: Cyclin D1 western blot; assay type: cell-based, human; settings: MV-4-11, 16 h, from as low as 10 nM
Experimental: as §1

[4] = Parallel artificial membrane permeability (PAMPA) assay; assay type: in vitro ADME
[5] = tested on: cellular senescence; experiment: Senescence-associated β-galactosidase assay (SA-β-gal); assay type: cell-based; settings: data not shown

COC(=O)c1ccc2c(c1)/C(=C1/Nc3ccccc3/C1=N\OCCN1CCNCC1)C(=O)N2.Cl.Cl [LDD1937, methyl (2Z,3E)-2′-oxo-3-((2-(piperazin-1-yl)ethoxy)imino)-[2,3′-biindolinylidene]-5′-carboxylate dihydrochloride]
IC50 [1]: 300 nM
cleaved PARP ([2]; 1 nM): an increase in the cleaved PARP was detected
PARP cleavage ([2]; western blot): induced PARP cleavage in a dose-dependent manner
cyclin D1 level [3]: dose-dependent reduction of the cyclin D level
PAMPA assay result [4]: –4.49 ± 0.140
PAMPA level of permeability [4]: medium level of permeability
SA-β-gal (cellular senescence) [5]: did not change
